Results on four compounds are retold here after patent US20050209231A1, “Compositions and methods for inducing cardiomyogenesis” (priority 2004, published 2005).

Each structure is given as a SMILES string.

The test system of data set [1] is P19CL6 cells. The data set is described as follows: MHC expression by immunostaining (anti-MHC antibody MF20), secondary assay for differentiation. The class given is cell-based, murine. Conditions: for Optimal Activity: % cells positive for MHC after 7 days; for EC50: Mus musculus, P19CL6, inducing MHC expression. Here is the method: MHC is one of the essential motor proteins responsible for cardiac muscle contractibility and was used as a secondary assay for differentiation. […] The P19CL6 cell line is a subclone of P19 EC cells with higher potential for cardiomyogenesis. See Habara-Ohkubo, Cell Struct. Funct., 21:101-110 (1996). MHC expression was determined in P19CL6 cells by immunostaining cells with anti-MHC antibody (MF20) (FIG. 2F).
The optimal activities of the cardiogenols in Table 1 are indicated by a series of "+" signs, as follows: ++: 10-25% cells are positive for MHC after 7 days; +++: 25-40% cells are positive for MHC after 7 days; ++++: 40-55% cells are positive for MHC after 7 days.

The nature of data set [2]: Toxicity of the cardiogenols (Table 1). The class given is cell-based, murine. Conditions: mouse, P19CL6 cells.
Data set [3] deals with R1 mouse ESCs. Nature of the data set: Differentiation of undifferentiated R1 ESCs in monolayer into cardiac muscle (immunostaining of MHC, GATA-4, MEF2, Nkx2.5; beating). The data set is classed as cell-based. As to the method:
FIG. 2. Immunostaining of cardiac muscle markers in ESCs (A to E) and P19CL6 cells (F) treated with 0.25 μM cardiogenol C: (A) and (F) Myosin Heavy Chain (green); (B) GATA-4 (red); (C) MEF2 (red); (D) Nkx2.5 (red); and (E) Myosin Heavy Chain (green) and MEF2 (red). Cell nuclei were stained with DAPI (blue). Cells were fixed with 4% paraformaldehyde (Sigma) for 20 min. Cell staining was performed in PBS (Gibco) with 0.3% Triton X-100 and 6% horse serum. Primary antibodies were used at the following dilutions: myosin heavy chain (MHC) mouse monoclonal antibody MF20 (Developmental Studies Hybridoma Bank, 1:200), rabbit polyclonal anti-GATA-4 antibody (Santa Cruz Biotech, 1:300), rabbit anti-MEF2 antibody (Santa Cruz Biotech, 1:100) and goat anti-Nkx2.5 antibody (Santa Cruz Biotech, 1:100). Secondary antibodies were Cy2-conjugated anti-mouse (1:300), or Cy3-conjugated anti-rabbit or anti-goat antibodies (Jackson ImmunoResearch, 1:500). Cell nuclei were stained with DAPI (Roche). Images were taken with a Nikon Eclipes TE2000 microscope with 200-fold magnification. Double or triple-labeled images were assembled in Metamorph.
To confirm that these compounds are general cardiomyogenesis inducing agents, their effects on undifferentiated R1 mouse ESCs were analyzed. R1 mouse ESCs can be maintained in a pluripotent state with the addition of leukemia inhibitory factor (LIF) in the culture medium. The embryonic stem cell line R1 was cultured in gelatin-coated tissue culture dishes with Knockout DMEM with 15% ES serum replacement, 1 mM L-glutamine (from Gibco), 1% nonessential amino acids stock, 1% nucleosides stock, 0.1 mM […] (from Specialty Media) and 1000 units/mL of leukemia inhibitory factor (LIF, from Chemicon).
For differentiation, R1 cells were plated in a monolayer (10000 cells/well) in gelatin-coated 384-well or 96-well plates with 100 μL of DMEM with 10% FBS and 0.25 μM of compounds. LIF was not present during differentiation. After 7 days in culture (3 days with compounds and then, after changing the medium without additional compound added, another 4 days), the presence of beating cardiac muscle was visualized under a microscope. In addition to the expression of MHC (FIG. 2A), the cardiac specific gene, GATA-4, was detected by immunofluorescent staining using anti-GATA4 antibody (FIG. 2B).
Cardiogenol C has a […] aniline substituting at the pyrimidine C2 position and is very potent with an EC50 of 0.1 μM for inducing the differentiation of MHC positive cardiomyocytes from ESCs. […] See Boheler et al., Circ. Res., 91:189-201 (2002). […] This is in contrast to the current standard method of inducing cardiomyogenesis of ESCs by aggregation and formation of EBs, which results in only 5% of the cell population forming cardiomyocytes. See Boheler et al., (2002).
To further characterize the activity of Cardiogenol C, the expression of the cardiac muscle cell specific transcription factors MEF2 and Nkx2.5 was examined (FIGS. 2C and D). Members of the MEF2 family are essential for muscle development. See, e.g., Edmondson, et al., Development, 1251-1263 (1994); Lin et al., Science, 276:1404-1407 (1997). Nkx2.5 together with GATA-4 regulates the expression of multiple cardiac muscle specific genes (e.g., myosin light chain 2V, atria natriuretic factor, eHAND and homeodomain transcription factor HOP). See, e.g., Small et al., Cell, 110:725-735 (2002); Shin et al., Cell, 110:725-35 (2002). Moreover, the targeted interruption of Nkx2.5 gene is embryonic lethal and results in arrest of cardiac development. See, e.g., Lyons et al., Genes Dev., 9:1654-66 (1995). Approximately 90% of cardiogenol C treated cells stain positive for MEF2 and Nkx2.5, further confirming that ESCs are differentiated into cardiac muscle by cardiogenol C.

Data set [4] relates to R1 cells. The data set is described as follows: Cellular toxicity and cell death in R1 cells. The data set is classed as cell-based.
Where [5] appears, read: R1 cells, 0.25 μM compound for 3 days, then 4 days in medium without compound.

As a reminder, the EC50 is the concentration that produces a half-maximal response. As to `OCCNc1ccnc(Nc2ccc(Oc3ccccc3)cc2)n1` [Cardiogenol B], in data set [1], the “Optimal Activity” value is “+++ (25-40% cells are positive for MHC after 7 days)” and the 50% effective concentration (EC50) stood at 500 nM. Also, the EC50 in data set [2] came to 5 µM.

With `COc1ccc(Nc2nccc(NCCO)n2)cc1` [Cardiogenol C], in data set [1], the “Optimal Activity” value is “++++ (40-55% cells are positive for MHC after 7 days)” and the EC50 was determined as 100 nM. The same compound yielded a half-maximal effective concentration (EC50) in data set [2] of 25 µM. Besides, in data set [3] (ESCs), the “treated cells stain positive for MEF2” value is “Approximately 90%” and the “treated cells stain positive for Nkx2.5” value is “Approximately 90%”. Further, in data set [3] (Mus musculus, Cardiomyocyte, read-out: EC50 for inducing the differentiation of MHC positive cardiomyocytes from ESCs), the half-maximal effective concentration (EC50) amounted to 100 nM. In addition, the “beating areas (functional cardiac muscle)” value in data set [3] (R1 cells treated with compound) is listed as “many beating areas”. Moreover, in data set [3] (setting [5]), the “cells positive for GATA-4” value is reported as “more than 90%” and the “cells stained positive for MHC” value is given as “more than 50%”. Also, in data set [4], the “concentration showing significant cellular toxicity” value is listed as “greater than 25 μM”.

As for `OCCNc1ccnc(Nc2ccc(/C=C/c3ccccc3)cc2)n1` [Cardiogenol D], in data set [1], the “Optimal Activity” value is reported as “++++ (40-55% cells are positive for MHC after 7 days)” and a half-maximal effect (EC50) was put at 100 nM. The half-maximal effective concentration (EC50) in data set [2] is 2.5 µM.

Take `OCCNc1ccnc(Nc2ccc(Nc3ccccc3)cc2)n1` [Cardiogenol A]: the “Optimal Activity” value in data set [1] is recorded as “++ (10-25% cells are positive for MHC after 7 days)”. Also, the EC50 in data set [1] was determined as 1000 nM; in data set [2] it was 5 µM.
